Laboratory results from patent US10945427B2, “Trehalose and dextran-containing solution for transplanting mammalian cells” (OTSUKA PHARMACEUTICAL FACTORY, INC., priority 2013, dated 2021).

system: Human mesenchymal stem cells from bone marrow [hMSC-BM]; test: Cell survival rate of hMSC-BM preserved in solution for cell transplantation (Trypan blue); format: cell-based; conditions: hMSC-BM preserved for 14 days; saccharide-containing Lactec injection without trehalose or dextran
Description: Human mesenchymal stem cells from bone marrow [hMSC-BM] (from Lonza Co., Ltd.) were prepared according the procedures described in [1] to [8] below and used in the present experiment.
[1] hMSC-BM were cultured in a 5% CO2 incubator at 37° C. in the presence of a medium kit specific for human mesenchymal stem cells (from Lonza Co., Ltd.) (hereinafter referred to as “MSC medium”) using a 75-cm^2 flask. The state of the cells was observed under a microscope, and culture was performed until a confluent state of about 80% was reached.
[2] The […] was removed using an aspirator, and hMSC-BM were rinsed with 8 mL/flask of PBS (from Invitrogen Co., Ltd.).
[4] Swing was carried out in a slow manner while hMSC-BM were observed under a microscope until about 90% thereof were detached.
Centrifugation was carried out at 600×g and 25° C. for 5 minutes.
[7] The MSC medium as the supernatant was removed using an aspirator, and 4 mL/flask of PBS (from Invitrogen Co., Ltd.) was added, followed by suspending an hMSC-BM pellet (precipitate).
[8] 10 μL of the hMSC-BM suspension was taken; the number of the cells was measured using a cell counter; and PBS (from Invitrogen Co., Ltd.) was added thereto to 5×10^5 cells/mL, which was then cooled with ice.
[1] The hMSC-BM suspension prepared in the step [7] of the “1-1-3 Preparation of Mammalian Cell” described above was dispensed into a 15-mL conical centrifuge tube using […] (100 to 1,000 μL) and centrifuged at 600×g and 25° C. for 5 minutes.
[2] The supernatant after centrifugation treatment was aspirated/removed, and the resultant was suspended in each of the 11 solutions for cell transplantation and then preserved in a refrigerator (under conditions of 4° C.) for […]. To measure the cell survival rate before preservation, the supernatant after centrifugation treatment was aspirated/removed, and the resultant was then suspended in PBS (from Invitrogen Co., Ltd.), immediately followed by taking a portion (20 μL) of the suspension, mixing the portion with 20 μL of Trypan blue stain solution (from Gibco Co., Ltd.), and then measuring the total number of the cells and the number of dead cells using a cell counter under a microscope to evaluate the rate of living cells (see “P” in FIG. 1).
[3] After preserving hMSC-BM in the solution for cell transplantation for 14 days, stirring (5 times pipetting at a liquid volume of 500 μL) was gently performed in a state in which the end of a tip was inserted to a position visually at on the order of 5 mm from the bottom to make cells in a suspended state, and a portion (20 μL) of the suspension was taken into a 1.5-mL microtube, mixed with 20 μL of Trypan blue stain solution (from Gibco Co., Ltd.), and then measured for the total number of the cells and the number of dead cells using a cell counter under a microscope to evaluate the rate of living cells.

Compound	effect of saccharide used alone on cell death, FIG. 7
OC[C@H]1O[C@@H](O[C@H]2[C@H](O)[C@@H](O)C(O)O[C@@H]2CO)[C@H](O)[C@@H](O)[C@H]1O (stereo partly drawn) [lactose]	had not the effect of suppressing cell death
OC[C@H]1O[C@H](O[C@H]2[C@H](O)[C@@H](O)[C@H](O)O[C@@H]2CO)[C@H](O)[C@@H](O)[C@@H]1O [maltose]	had not the effect of suppressing cell death
OC[C@@H](O)[C@@H](O)[C@H](O)[C@H](O)CO [mannitol]	had not the effect of suppressing cell death
OC[C@H]1O[C@H](OC[C@H]2O[C@H](O[C@]3(CO)O[C@H](CO)[C@@H](O)[C@@H]3O)[C@H](O)[C@@H](O)[C@@H]2O)[C@H](O)[C@@H](O)[C@H]1O [raffinose]	had not the effect of suppressing cell death
OC[C@@H](O)[C@@H](O)[C@H](O)[C@@H](O)CO [sorbitol]	had not the effect of suppressing cell death
OC[C@H]1O[C@@](CO)(O[C@H]2O[C@H](CO)[C@@H](O)[C@H](O)[C@H]2O)[C@@H](O)[C@@H]1O [sucrose]	had not the effect of suppressing cell death
